In series [1] the test system is RAW264.7 cells. The settings on record: cited from earlier work.
Series [2] concerns RAW264.7 cells. Put plainly: LPS-induced osteoclastogenesis in RAW264.7 cells, TRAP staining. It is filed as cell-based, murine. The settings on record: RAW264.7 cells differentiated with LPS (1 ug/ml), days 3-5 (FIG. 1). The text has this:
RAW264.7 cells are precursors of osteoclasts and can be differentiated by several factors including Receptor activator of NF-κB ligand (RANKL) or Lipopolysaccharide (LPS). Osteoclasts are characterized by high expression or tartrate resistant acid phosphatase (TRACP) and Matrix Metalloproteinase-9 (MMP-9) which can be used as markers for osteoclasts. […] The effect of selected compounds on TRAP (osteoclast marker) and IL-12 was undertaken in RAW264.7 cells, a murine osteoclast precursor cell line, in comparison with capric acid, as a positive control for reduction of osteoclastogenesis (Park et al. (2011) PLOS One Volume 6, Issue 11, 8 pages). RAW264.7 cells were differentiated by the incubation with LPS (1 ug/ml) in presence or not of capric acid or Compound I. On days 3-5, osteoclast formation was evaluated using tartrate-resistant acid phosphatase (TRAP) staining.

In series [3] the test system is RAW264.7 cells. Put plainly: IL-12 production in LPS-stimulated RAW264.7 cells (IL-12 ELISA). It is filed as cell-based, murine. The settings on record: 100 ng/mL LPS, 21 hours. How it is done:
RAW264.7 cells were cultured with 100 ng/mL of LPS in presence or absence of compounds for 21 hours in a humidified atmosphere of 95% air-5% carbon dioxide at 37° C. IL-12 concentration in the culture medium was measured using the IL-12 ELISA according to the manufacturer (BD Biosciences) recommendations. […] An in vitro IL-12 production assay was used for screening potential inhibitors of osteoclastogenesis.

Series [4] concerns ovariectomized (OVX) rats. The experiment in a line: Ovariectomized (OVX) rat model of osteoporosis. The format is in vivo, Sprague Dawley rats. An excerpt: Although in comparison to humans, the skeletal mass of rats remains stable for a protracted period during their lifespan, rats can be ovariectomized to make them sex-hormone deficient, and to stimulate the accelerated loss of bone that occurs in women following menopause. Ovariectomy induces bone loss in the rat and postmenopausal bone loss share many similar characteristics. These include: increased rate of bone turnover with resorption exceeding formation; an initial rapid phase of bone loss followed by a much slower phase; greater loss of cancellous than cortical bone; decreased intestinal absorption of calcium; some protection against bone loss by obesity; and similar skeletal response to therapy with estrogen, tamoxifen, bisphosphonates, parathyroid hormone, calcitonin and exercise. These wide-ranging similarities are strong evidence that the ovariectomized rat bone loss model is suitable for studying problems that are relevant to postmenopausal bone loss. Sprague Dawley rats (250 g) were ovariectomized (OVX) at day 0. Rats were treated by oral gavage with Compound I (200 mg/kg) from day 14 to day 68. Evaluation of different parameters (body weight, calcium loss, osteoclast markers (RANKL and TRAP mRNA expression), collagen content and histology) was performed at day 68.

The subject of another series is db/db mice. The experiment in a line: Serum adiponectin level in uninephrectomized diabetic obese (db/db) mice. The settings on record: uninephrectomized db/db mice treated for 113 days (FIG. 9). The format is in vivo. How it is done:
To determine if selected compounds of this invention can affect serum adiponectin level, a model of diabetes type II/obesity was used. Briefly, db/db mice (6 weeks-old were uninephrectomized and treated with Compound XIV for 113 days (structure is shown in Table 1 hereinbefore). Serum adiponectin levels were determined with a mouse adiponectin enzyme-linked immunosorbant assay kit (R&D Systems).

Entries after “also recorded” stand apart in the source; their conditions may differ.

`CCCCCCCCCC(=O)O` [capric acid]: in the series on RAW264.7 cells [1] (literature (Wang et al. 2006)), the IL-12 production entry is “increase in IL-12 production; also recorded: increases the production of IL-12” and the “phosphatase (TRAP)-positive cells” value was “reduction of phosphatase (TRAP)-positive cells”. Also, in the series on RAW264.7 cells [1] (literature), the “LPS-upregulated iNOS mRNA levels and nitric oxide (NO) production” value is “inhibited them”; the “monocyte chemoattractant protein-1 (MCP-1) mRNA expression” value is “inhibited monocyte chemoattractant protein-1 (MCP-1) mRNA expression”. Moreover, the “osteoclast formation, TRAP staining” value with RAW264.7 cells [2] is “no TRAP cells are observable”.
In turn, `CCCCCCc1cccc(CC(=O)[O-])c1.[Na+]` [Compound VI, Sodium Salt of 2-(3-Hexylphenyl)acetic Acid] registered an IL12 with RAW264.7 cells [3] (compound concentration 0.25 mM) of 58.87 pg/mL.
`CCCCCc1cccc(CCC(=O)[O-])c1.[Na+]` [Compound II, Sodium Salt of 3-(3-pentylphenyl)propionic Acid] gave an IL12 in the series with RAW264.7 cells [3] (compound concentration 0.50 mM) of 350.65 pg/mL.
`CCCCCc1cccc(CC(=O)[O-])c1F.[Na+]` [Compound XI, Sodium Salt of 2-(2-Fluoro-3-pentylphenyl)acetic Acid] gave an IL12 with RAW264.7 cells [3] (compound concentration 0.25 mM) of 15 pg/mL.
As to `CCCCCc1cc(CCCCC)cc(CCC(=O)[O-])c1.[Na+]` [Compound XXIV, Sodium 3-[3,5-Dipentylphenyl]propanoate], the IL12 with RAW264.7 cells [3] (compound concentration 0.0025 mM) stood at 79.9 pg/mL.
`CCCCCc1cc(O)cc(CC(=O)[O-])c1.[Na+]` [Compound VII, Sodium Salt of 3-hydroxy-5-pentylphenylacetic Acid] showed an IL12 in the series on RAW264.7 cells [3] (compound concentration 0.50 mM) of 16.6 pg/mL.
`CCCCc1cccc(CCC(=O)[O-])c1.[Na+]` [Compound III, Sodium Salt of 3-(3-butylphenyl)propionic Acid] had an IL12 in the series on RAW264.7 cells [3] (compound concentration 0.50 mM) of 62.28 pg/mL.
Same read-out and setting: the value for `CCCCCc1cc(CC(=O)[O-])ccc1F.[Na+]` [Compound XII, Sodium Salt of 2-(4-Fluoro-3-pentylphenyl)acetic Acid] was 419.6 pg/mL.
In the series with RAW264.7 cells [3] (compound concentration 0.50 mM), `CCCCCc1cccc(CC(=O)[O-])c1.[Na+]` [Compound I, Sodium Salt of (3-pentylphenyl)acetic Acid] returned an IL12 of 54.34 pg/mL. Moreover, the “IL-12 production (in words)” value in the series on RAW264.7 cells [3] (various concentrations (FIG. 2, Table 2)) is on record as “strong induction of IL-12 production”. Also, the “body weight / ovariectomized-induced obesity” value in series [4] (oral gavage 200 mg/kg day 14 to day 68 (FIG. 3)) is “reduced ovariectomized-induced obesity”. Also, the “calcium loss in urine” value in series [4] (oral gavage 200 mg/kg, day 28 to day 56 (FIG. 4)) is on record as “reduced significantly the calcium loss”. For the same molecule, the “acid phosphatase activity in serum” value in series [4] (oral gavage 200 mg/kg, day 28 to day 56 (FIG. 5)) was “reduces the acid phosphatase activity”. For the same molecule, the “ratio of mRNA expression of RANKL/OPG in rat tibia” value in series [4] (oral gavage 200 mg/kg, day 68 (FIG. 6)) is given as “decreased”. Besides, the “collagen content in the metaphyse of the femur” value in series [4] (oral gavage 200 mg/kg, day 68 (FIG. 7)) was “increased the collagen content”. The “bone loss in the metaphysis of the femur, histology” value in series [4] (oral gavage 200 mg/kg, day 68 (FIG. 8)) is reported as “reduced bone loss”. In addition, in the series on RAW264.7 cells [2], the “osteoclast formation, TRAP staining” value was “no TRAP cells are observable”.
Turning to `CCCCCc1cccc(C(F)C(=O)[O-])c1.[Na+]` (racemic) [Compound XIII, Sodium Salt of (RS)-2-Fluoro-2-(3-pentylphenyl)acetic Acid], the IL12 in the series with RAW264.7 cells [3] (compound concentration 0.25 mM) was 17.6 pg/mL.
As to `CCCCCc1cc(CCCCC)c(O)c(CC(=O)[O-])c1.[Na+]` [Compound XVI, Sodium Salt of 2-(2-Hydroxy-3,5-dipentylphenyl)acetic Acid], in the series with RAW264.7 cells [3] (compound concentration 0.005 mM), the IL12 was found to be 15 pg/mL.
As to `CCCCCc1cccc(CC(=O)[O-])c1O.[Na+]` [Compound IX, Sodium Salt of 2-(2-Hydroxy-3-pentylphenyl)acetic Acid], in the series with RAW264.7 cells [3] (compound concentration 0.1 mM), the IL12 came out at 12.57 pg/mL.
In turn, `CCCCCc1cc(CC(=O)[O-])ccc1O.[Na+]` [Compound VIII, Sodium Salt of 2-(4-Hydroxy-3-pentylphenyl)acetic Acid] gave an IL12 in the series on RAW264.7 cells [3] (compound concentration 0.50 mM) of 20 pg/mL.
Same read-out and setting: the value for `CCCCCc1cc(F)cc(CC(=O)[O-])c1.[Na+]` [Compound X, Sodium Salt of 2-(3-fluoro-5-pentylphenyl)acetic Acid] was 80 pg/mL.
Consider `CCCCCc1cc(CCCCC)cc(CC(=O)[O-])c1.[Na+]` [Compound XIV, Sodium 2-[3,5-Dipentylphenyl] Acetate], for which the melting point was 225 to 230 °C. The serum adiponectin level entry in the series on db/db mice is recorded as “increased the level of adiponectin to the level of the sham animals”.
In turn, `CCC/C=C/c1cccc(CC(=O)[O-])c1.[Na+]` [Compound IV, Sodium Salt of E-(3-pent-1-enyl-phenyl)acetic Acid] displayed an IL12 with RAW264.7 cells [3] (compound concentration 0.50 mM) of 19.31 pg/mL.
`CCCC/C=C/c1cccc(CC(=O)[O-])c1.[Na+]` [Compound V, Sodium Salt of 2-(3-(Hex-1-enyl]phenyl)acetic Acid] came in with an IL12 with RAW264.7 cells [3] (compound concentration 0.50 mM) of 52.5 pg/mL.

These data come from patent publication US11185521B2, “Substituted aromatic compounds and pharmaceutical compositions for the prevention and treatment of osteoporosis” (Liminal BioSciences Inc., priority 2014, dated 2021).
